This assay in a line: Inhibition of HIV1 YU2 gp120 binding to CD4 expressing Cf2Th-CD4/CCR5 cells assessed as inhibition of viral infection after 48 hrs.

pIC50: −log10 of the molar value.

On to `CCN1CCCC1CNC(=O)C(=O)Nc1ccc(Cl)cc1` (stereo unspecified) [N1-(4-chlorophenyl)-N2-((1-ethylpyrrolidin-2-yl)methyl)oxalamide], for which the pIC50 (in general, the negative decadic logarithm of the IC50, by convention in mol/L) was 4.23.

As for `CC1CCCCN1C(C)CNC(=O)C(=O)Nc1ccc(Cl)c(F)c1` (stereo unspecified) [N1-(4-chloro-3-fluorophenyl)-N2-(2-(2-methylpiperidin-1-yl)propyl)oxalamide], the negative-log IC50 (pIC50) was less than 4.00.

For `O=C(CN1CCCCCC1)Nc1ccc(Br)cc1` [2-(azepan-1-yl)-N-(4-bromophenyl)acetamide], the pIC50 was less than 4.00.

On to `CC1(C)CC(NC(=O)C(=O)Nc2ccc3cc[nH]c3c2)CC(C)(C)N1` [4-(2-(1H-indol-6-ylamino)-2-oxoacetamido)-2,2,6,6-tetramethylpiperidinium], for which the pIC50 was less than 4.00.

Turning to `Cc1cc(SCC(=O)Nc2ccc(Cl)cc2)[nH]c(=O)n1` [N-(4-chlorophenyl)-2-(6-methyl-2-oxo-1,2-dihydropyrimidin-4-ylthio)acetamide], the pIC50 is less than 4.00.

In the case of `CC1(C)CC(=O)c2cc(C(=O)Nc3ccc(Cl)cc3)c(=O)[nH]c2C1` [N-(4-chlorophenyl)-7,7-dimethyl-2,5-dioxo-1,2,5,6,7,8-hexahydroquinoline-3-carboxamide], the pIC50 is less than 4.00.

The record behind these values is BindingDB's records for doi:10.1016/j.bmc.2010.11.049 (Bryn Mawr College, 2011).
